The values that follow come from PMC10570359, “Dietary supplementation of cystinotic mice by lysine inhibits the megalin pathway and decreases kidney cystine content” (Scientific Reports, 2023).

Like-named read-outs stand apart in the source and are kept apart here. Where only a bound is given, the exact number is not on record here.

Series [1] deals with T1, porcine megalin (Sus scrofa, UniProt C0HL13). The series can be described thus: Surface plasmon resonance: competition for TC:B12 binding to chip-immobilized megalin. The conditions noted are these: for IC50: 10 µg/ml TC:B12 in 0 to 100 mM amino-acid, Biacore; for SPR signal of amino-acid alone on megalin chip: chips exposed to increasing concentrations of amino-acid, no analyte. The procedure: (§1) To directly address whether supra-physiological concentrations of dibasic amino-acids (dAAs) can interfere with binding of protein ligands to megalin, we used surface plasmon resonance. Sensor chips were derivatized with porcine megalin at high density. […] After flushing, chips were incubated with 10 µg/ml of three analytes: the megalin chaperone, RAP (receptor-associated protein), as positive control (not shown), or two physiological megalin ligands: transcobalamine:cobalamine complexes (TC:B12; Fig. 1; sensorgrams shown at Supplemental Fig. 1a) or lysozyme (Supplemental Fig. 1b), diluted in 0 to 100 mM of the same amino-acids in buffer. […] The supraphysiological range for effective competition in vitro defined the necessary increment in urinary concentration from dietary supplementation for significant competition in vivo.
Figure 1 Acellular assay: direct competition for transcobalamine:cobalamine binding to megalin immobilized on Biacore sensor chips. Signals of sensorgrams (shown in Supplemental Fig. 1) were normalized to control signal without AA supplementation, taken as the unity, and are means ± SEM of at least four independent technical duplicate values at each of the indicated amino-acid-concentrations.
(§2) Surface plasmon resonance (SPR) analysis of the binding to chip-immobilized megalin of receptor-associated protein (RAP), transcobalamine:cobalamine complex (TC:B12) and lysozyme was carried out using a Biacore T200 instrument (Uppsala, Sweden). The sensor chips (type CM5) were activated with a 1:1 mixture of 0.2 M N-ethyl-N′-(3-dimethylaminopropyl) carbodiimide and 0.05 M N-hydroxysuccinimide in H2O. Porcine megalin[49] was immobilized on the chip in 10 mM sodium acetate, pH 4.0, and the remaining binding sites were blocked with 1 M ethanolamine, pH 8.5. The SPR signal generated from immobilized megalin were obtained with a density of 4.5 fmol protein/mm^2.
(§3) Human RAP was produced as recombinant protein in E. coli[50] and used to validate the sensor chip. TC was purified and complexed with B12 as described (TC/B12)[50],[51]. Human recombinant lysozyme was purchased from Sigma-Aldrich (expressed in rice, # L1667). Sensorgrams were generated using each of these three ligands at 10 µg/ml in a running buffer consisting of 10 mM Hepes, 150 mM NaCl, 4 mM CaCl2 and 0.05% Tween 20, pH 7.4. The flow cells were regenerated with 1 M ethanolamine pH 9.0. Analyte testing was performed as a dual injection starting with running buffer supplemented with the defined concentrations of amino acids followed by injection of analyte in the same solution. The pH of all buffers was adjusted after amino acids addition. All binding experiments were made as at least independent triplicate of technical duplicates and data were analyzed using the Biacore T200 evaluation software version 3.1.

The target in series [2] is T1, porcine megalin. The series is described as follows: Surface plasmon resonance: competition for lysozyme binding to chip-immobilized megalin. The conditions noted are these: 10 µg/ml lysozyme in 0 to 100 mM amino-acid. How it is done: as §1, §2, §3
The nature of series [3]: Tolerance of prolonged 5x-dAA diets in mice. The conditions noted are these: ad libitum 5x-supplemented solid diet, approx. 45 mmoles/kg/day.
Source text: Ctns knockout mice (C57BL/6 background) were kindly provided by Dr. Corinne Antignac[18]. […] The same increase was set for L- (and D-) lysine.
Series [4] deals with megalin pathway. The series is described as follows: LMW proteinuria (urinary CC16) in WT mice under 5x-dAA diets. The conditions noted are these: WT C57Bl-6 mice, 3 weeks diet, vs control diet. It is filed as in vivo. How it is done:
In a second experiment, 5x-D-lysine was compared to regular diet.
(§4) Body weight was recorded before entering the metabolic cages. […] Creatinine clearance was normalized by mouse body weight.

The nature of series [5]: Clinical urine and serum analyses in Ctns KO mice under 5x-dAA diets. The conditions noted are these: Ctns KO mice at 8 months of age, 2 months of treatment, mean ± SEM.
Source text: We also attempted to further discriminate between luminal (competition for surface megalin binding) and intracellular metabolic effects (see Discussion) by comparing the effects of 5x-L-lysine to its stereoisomer, 5x-D-lysine. Unless stated otherwise, diets were initiated at 6 months-of-age, and mice were studied then euthanized at 8 months-of-age (2-months treatment). This time frame was selected for two reasons. First, in the mouse cystinosis model, this an appropriate window to evaluate the impact on PTC alterations based on changes in kidney cystine accumulation and overall function. […] Second, although primary prevention by earlier intervention (from 2-to-6 months-of-age) better mimics perinatal genetic megalin ablation, thus could be more efficient, secondary intervention (starting at 6 months-of-age), when disease becomes clinically apparent, is more relevant for further translational studies.
as §4

The nature of series [6]: Urinary and serum amino-acid concentration by mass spectrometry in Ctns KO mice. It is filed as in vivo. The procedure: as §4
Quantitative analysis of underivatized amino-acids in serum and urine samples was performed using the Amino Acids LC–MS/MS analysis Kit Jasem®. […] Equipment was controlled and data were analyzed using MassHunter Workstation (Agilent Technologies). The assay was validated for selectivity, specificity, linearity and limit of quantification, accuracy and precision, matrix effects and recovery, and stability.

Series [7] relates to Ctns KO mice kidneys. The series can be described thus: Kidney cystine content in Ctns KO mice. Type of series: in vivo. The conditions noted are these: diet from 6-to-8 months-of-age. How it is done:
For this pilot study, we selected tissue accumulation of cystine as a clear and measurable outcome to quantify long-term interference of dAAs with the endocytic supply of disulfide-rich plasma proteins to kidney PTCs.
(§5) Mice were euthanized by cabon dioxide (CO2) inhalation. Dissected tissues were homogenized in 10 mM N-ethylmaleimide. Protein fraction was obtained after precipitation in 10% 5-sulfosalicylic acid and centrifugation at 20,000g for 20 min at 4 °C. Protein pellet was resuspended in 100 mM NaOH and assayed by the Bio-Rad Protein Assay according to manufacturer’s instructions. Supernatant (50 μl) was mixed with 50 μL of the internal standard solution (Cystine d6) and vortexed for 5 s; then the mixture was extracted with 200 μl of acetonitrile, vortexed for at least 30 s, then centrifuged at 13,000 rpm for 9 min. Liquid chromatography and mass spectrometry analysis was performed by a UHPLC Agilent 1290 Infinity II 6470 (Agilent Technologies) equipped with an ESI-JET-STREAM source operating in the positive ion (ESI +) mode. Equipment was controlled and data were analyzed using MassHunter Workstation (Agilent Technologies). The separation column was InfinityLab Poroshell 120 HILIC 1.9 μm 100 × 2.1 mm (Agilent Technologies). Validation of the method was performed basing on the US Food and Drug Administration (FDA) guideline for industry bioanalytical method validation (FDA 2013) and European Medicines Agency (EMA) guideline (EMA 2011). The assay was validated for selectivity, specificity, linearity and limit of quantification, accuracy and precision, matrix effects and recovery, and stability.

Series [8] concerns Ctns KO mice liver. The series can be described thus: Liver cystine content in Ctns KO mice. It is filed as in vivo. The conditions noted are these: diet from 6-to-8 months-of-age. The procedure:
In the second study to explore the effects of the D-lysine stereoisomer, Ctns KO mice received control vs 5x-D-lysine diet from 6-to-8 months-of-age. Mean kidney cystine value at 8 months-of-age under control diet was 109.4 ± 23.0 nmol hemi-cystine/mg kidney protein, slightly lower than in the first study.
as §5, with “The separation column was InfinityLab Poroshell 120 HILIC 1.9 μm 100 × 2.1 mm (Agilent Technologies). Validation of the method was performed basing on the US Food and Drug Administration (FDA) guideline for industry bioanalytical method validation (FDA 2013) and European Medicines Agency (EMA) guideline (EMA 2011).” left out

Series [9] has as its system megalin pathway. The series can be described thus: LMW proteinuria / albuminuria in Ctns KO mice under 5x-dAA diets.
Method: After 24-h adaptation in metabolic cages, urine was collected during the following 24 h in presence of 0.1% sodium azide and 1x-protease inhibitors (Thermo Scientific). When in metabolic cages, mice had free access to tap water and food. Blood was collected 2 days before starting the treatments and entry into metabolic cages (baseline) and at the sacrifice to obtain serum. Body weight was recorded before entering the metabolic cages. Urine and serum analyses were performed by the veterinary laboratory Appialab Srl (Rome, Italy). Urinary levels of CC16 were measured by the Mouse Clara Cell Protein 16 kit 96 T #EKU03200 (Biomatik) according to manufacturer’s instructions. Serum levels of cystatin-C were measured by the Mouse/Rat Cystatin C Quantitative ELISA #MSCTC0 (R&D Systems). […] Creatinine clearance was normalized by mouse body weight.
The mark [10] stands for this setting: read-out: IC50 for TC:B12/megalin interaction (mM; 95%CI).
Where [11] appears, read: Ctns KO mice at 8 months of age, 24-h urine, mean ± SEM.
Setting [12] is: Ctns KO mice at 8 months of age, 2 months of treatment, urine, mean ± SEM.
[13] abbreviates: IC50 for TC:B12/megalin interaction (mM; 95%CI).

T1 sequence (C0HL13 26-4652): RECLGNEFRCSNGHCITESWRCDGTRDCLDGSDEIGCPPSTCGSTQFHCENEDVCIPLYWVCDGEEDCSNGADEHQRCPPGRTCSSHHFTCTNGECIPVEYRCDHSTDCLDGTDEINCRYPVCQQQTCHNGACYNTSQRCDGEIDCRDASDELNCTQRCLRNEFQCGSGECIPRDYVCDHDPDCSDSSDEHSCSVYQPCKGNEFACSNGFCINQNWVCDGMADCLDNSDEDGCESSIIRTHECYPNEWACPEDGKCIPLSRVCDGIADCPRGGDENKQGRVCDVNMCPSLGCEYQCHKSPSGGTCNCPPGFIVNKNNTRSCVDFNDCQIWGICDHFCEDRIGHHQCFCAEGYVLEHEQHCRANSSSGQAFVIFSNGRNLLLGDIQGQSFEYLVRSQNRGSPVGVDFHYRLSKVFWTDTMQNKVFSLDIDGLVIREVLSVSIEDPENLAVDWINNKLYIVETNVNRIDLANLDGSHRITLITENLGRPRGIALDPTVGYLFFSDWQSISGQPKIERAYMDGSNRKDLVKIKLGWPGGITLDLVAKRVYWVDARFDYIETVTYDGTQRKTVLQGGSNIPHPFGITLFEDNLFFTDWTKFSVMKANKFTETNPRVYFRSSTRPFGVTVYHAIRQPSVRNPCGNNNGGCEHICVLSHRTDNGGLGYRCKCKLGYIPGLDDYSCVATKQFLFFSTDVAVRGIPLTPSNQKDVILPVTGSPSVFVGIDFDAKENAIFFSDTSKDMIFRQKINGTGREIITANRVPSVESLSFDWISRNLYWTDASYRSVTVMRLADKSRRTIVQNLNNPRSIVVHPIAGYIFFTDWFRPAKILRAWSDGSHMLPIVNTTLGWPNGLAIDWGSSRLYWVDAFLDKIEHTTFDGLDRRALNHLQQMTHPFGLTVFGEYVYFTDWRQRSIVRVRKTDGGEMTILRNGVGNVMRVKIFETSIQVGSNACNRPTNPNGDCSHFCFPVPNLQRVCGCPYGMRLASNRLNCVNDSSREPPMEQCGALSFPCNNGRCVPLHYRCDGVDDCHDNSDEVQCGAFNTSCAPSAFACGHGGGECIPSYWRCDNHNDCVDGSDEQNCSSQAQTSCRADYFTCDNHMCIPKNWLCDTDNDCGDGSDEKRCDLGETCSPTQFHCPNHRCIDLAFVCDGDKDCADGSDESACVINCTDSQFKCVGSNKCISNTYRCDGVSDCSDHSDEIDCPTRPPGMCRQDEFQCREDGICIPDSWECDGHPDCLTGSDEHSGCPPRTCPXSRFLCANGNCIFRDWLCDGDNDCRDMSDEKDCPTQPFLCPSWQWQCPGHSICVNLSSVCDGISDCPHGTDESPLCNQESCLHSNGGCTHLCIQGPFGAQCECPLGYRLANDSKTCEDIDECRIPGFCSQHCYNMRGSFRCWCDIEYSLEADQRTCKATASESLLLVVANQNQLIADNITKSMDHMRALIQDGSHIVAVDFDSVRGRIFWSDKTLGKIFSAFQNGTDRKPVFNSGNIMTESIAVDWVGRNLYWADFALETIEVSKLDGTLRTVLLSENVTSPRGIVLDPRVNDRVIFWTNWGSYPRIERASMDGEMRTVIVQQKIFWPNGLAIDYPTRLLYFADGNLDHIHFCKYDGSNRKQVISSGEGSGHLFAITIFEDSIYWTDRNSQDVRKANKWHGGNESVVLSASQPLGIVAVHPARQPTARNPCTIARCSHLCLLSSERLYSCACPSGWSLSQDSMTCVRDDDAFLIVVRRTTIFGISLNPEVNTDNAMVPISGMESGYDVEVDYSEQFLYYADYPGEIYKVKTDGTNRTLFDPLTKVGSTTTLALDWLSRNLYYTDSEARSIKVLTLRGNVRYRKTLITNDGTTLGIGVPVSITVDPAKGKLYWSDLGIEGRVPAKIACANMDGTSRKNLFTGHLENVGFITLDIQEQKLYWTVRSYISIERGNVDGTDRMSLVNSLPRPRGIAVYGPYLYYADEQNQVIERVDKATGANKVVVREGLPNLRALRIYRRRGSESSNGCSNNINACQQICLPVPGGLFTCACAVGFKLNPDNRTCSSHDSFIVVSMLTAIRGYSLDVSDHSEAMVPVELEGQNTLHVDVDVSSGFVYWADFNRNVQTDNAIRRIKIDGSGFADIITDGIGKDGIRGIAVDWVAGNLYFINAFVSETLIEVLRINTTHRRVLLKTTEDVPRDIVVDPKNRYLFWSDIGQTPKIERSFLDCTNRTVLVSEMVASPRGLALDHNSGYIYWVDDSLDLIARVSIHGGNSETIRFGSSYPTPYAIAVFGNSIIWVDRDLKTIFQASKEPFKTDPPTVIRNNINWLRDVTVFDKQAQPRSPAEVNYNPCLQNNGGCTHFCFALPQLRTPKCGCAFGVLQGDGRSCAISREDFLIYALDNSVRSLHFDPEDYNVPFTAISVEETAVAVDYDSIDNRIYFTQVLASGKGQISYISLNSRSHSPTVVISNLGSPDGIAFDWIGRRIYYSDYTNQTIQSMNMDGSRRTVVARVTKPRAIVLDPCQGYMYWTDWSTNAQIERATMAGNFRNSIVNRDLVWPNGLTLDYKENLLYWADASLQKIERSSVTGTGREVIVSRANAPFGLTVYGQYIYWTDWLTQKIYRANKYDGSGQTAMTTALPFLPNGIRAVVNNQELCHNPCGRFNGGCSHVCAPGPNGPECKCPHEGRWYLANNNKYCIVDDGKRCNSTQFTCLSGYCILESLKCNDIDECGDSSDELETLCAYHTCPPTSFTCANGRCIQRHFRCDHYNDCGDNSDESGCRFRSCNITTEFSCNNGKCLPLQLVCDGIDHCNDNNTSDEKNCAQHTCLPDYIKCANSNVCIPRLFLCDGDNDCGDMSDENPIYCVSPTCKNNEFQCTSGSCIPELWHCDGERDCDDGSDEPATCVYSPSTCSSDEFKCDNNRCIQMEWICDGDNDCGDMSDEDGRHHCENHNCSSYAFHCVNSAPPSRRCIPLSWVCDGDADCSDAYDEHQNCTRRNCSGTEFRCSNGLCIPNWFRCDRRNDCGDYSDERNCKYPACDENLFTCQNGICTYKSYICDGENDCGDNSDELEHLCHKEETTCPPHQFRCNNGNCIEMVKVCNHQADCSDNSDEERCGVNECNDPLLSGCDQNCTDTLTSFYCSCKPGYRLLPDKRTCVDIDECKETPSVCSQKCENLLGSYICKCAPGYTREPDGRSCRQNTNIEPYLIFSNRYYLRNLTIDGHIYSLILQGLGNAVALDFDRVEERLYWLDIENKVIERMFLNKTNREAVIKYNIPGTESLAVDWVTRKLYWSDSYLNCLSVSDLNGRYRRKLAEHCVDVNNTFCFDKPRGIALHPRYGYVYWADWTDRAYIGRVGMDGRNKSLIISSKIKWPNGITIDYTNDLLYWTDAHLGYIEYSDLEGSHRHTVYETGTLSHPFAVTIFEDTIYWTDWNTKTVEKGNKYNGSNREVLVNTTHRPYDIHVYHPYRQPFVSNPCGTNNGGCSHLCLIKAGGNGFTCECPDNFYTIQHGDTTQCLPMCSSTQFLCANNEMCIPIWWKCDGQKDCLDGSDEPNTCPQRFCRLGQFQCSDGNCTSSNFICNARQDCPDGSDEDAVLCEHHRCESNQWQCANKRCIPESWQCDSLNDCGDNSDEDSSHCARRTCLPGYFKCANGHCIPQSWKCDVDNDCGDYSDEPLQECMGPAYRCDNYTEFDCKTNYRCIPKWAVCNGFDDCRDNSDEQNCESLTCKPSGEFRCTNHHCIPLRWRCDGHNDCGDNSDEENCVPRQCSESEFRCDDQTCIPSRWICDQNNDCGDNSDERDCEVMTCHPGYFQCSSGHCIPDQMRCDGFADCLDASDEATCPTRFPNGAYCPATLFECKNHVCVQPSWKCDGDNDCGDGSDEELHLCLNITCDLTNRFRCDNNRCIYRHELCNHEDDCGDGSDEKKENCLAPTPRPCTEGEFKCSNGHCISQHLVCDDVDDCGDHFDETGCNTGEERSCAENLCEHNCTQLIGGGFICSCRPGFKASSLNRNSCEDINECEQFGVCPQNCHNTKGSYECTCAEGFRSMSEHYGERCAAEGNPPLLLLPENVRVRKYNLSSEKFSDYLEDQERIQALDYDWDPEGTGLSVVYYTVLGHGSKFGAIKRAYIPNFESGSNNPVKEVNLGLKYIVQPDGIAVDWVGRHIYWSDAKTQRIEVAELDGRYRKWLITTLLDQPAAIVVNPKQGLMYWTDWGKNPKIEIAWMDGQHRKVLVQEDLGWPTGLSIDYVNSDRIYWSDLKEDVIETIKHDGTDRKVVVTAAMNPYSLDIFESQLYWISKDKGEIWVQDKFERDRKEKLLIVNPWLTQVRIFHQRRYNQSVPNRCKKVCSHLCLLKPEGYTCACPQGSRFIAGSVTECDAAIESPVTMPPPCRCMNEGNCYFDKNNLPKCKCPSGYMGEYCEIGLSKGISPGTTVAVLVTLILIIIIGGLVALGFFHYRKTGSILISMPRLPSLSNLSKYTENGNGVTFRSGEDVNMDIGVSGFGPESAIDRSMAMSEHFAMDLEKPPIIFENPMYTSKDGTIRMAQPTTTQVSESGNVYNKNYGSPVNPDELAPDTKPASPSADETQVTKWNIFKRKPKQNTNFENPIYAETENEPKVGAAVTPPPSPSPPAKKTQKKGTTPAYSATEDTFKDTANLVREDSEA

Regarding `NC(N)=NCCC[C@@H](N)C(=O)O` [5x-D-arginine, D-arginine], in [1] (setting [10]), the IC50 was 60 mM. Also, in series [1], the “SPR signal of amino-acid alone on megalin chip” value (“SPR signal of amino-acid alone” below) is “no signal was detected”. Moreover, the “effect on megalin binding of lysozyme” value in series [2] is “concentration-dependent decrease”. For the same molecule, in series [3], the “tolerance of prolonged diet” value is “weight loss and eventual high mortality”.
Turning to `NCCCC[C@@H](N)C(=O)O` [5x-D-lysine, D-lysine], the IC50 in series [1] (setting [10]) was 22 mM. Further, in series [1], the “SPR signal of amino-acid alone” value is “no signal was detected”. Moreover, the “effect on megalin binding of lysozyme” value in series [2] was “concentration-dependent decrease”. Further, the “increase of urinary excretion of CC16 (normalized for creatinine excretion)” value in [4] amounted to 20 fold. This molecule returned a Body weight in series [5] of 22.4 ± 0.3 g. Further, in series [5] (serum), the Serum creatinine is on record as 0.8 ± 0.1 mg/dL, the “Serum cystatin-C” value was found to be 723.3 ± 32.7 ng/mL, the Serum glucose is given as 172.4 ± 7.9 mg/dL and the Serum phosphate worked out at 9.5 ± 0.4 mg/dL. In series [5] (serum), this molecule registered a Serum urea of 43.2 ± 2.0 mg/dL. In series [5] (urine), the Daily creatinine output was found to be 0.7 ± 0.1 mg/day, the Diuresis turned out to be 5.3 ± 0.8 mL/day, the Urine creatinine is recorded as 13.4 ± 1.2 mg/dL and the Urine glucose/creatinine was 54.4 ± 4.5 g/g. Besides, in series [5] (urine), the Urine phosphate/creatinine came out at 4.8 ± 0.4 g/g and the Urine urea/creatinine came out at 181.8 ± 11.6 g/g. In addition, in series [6] (setting [11]), the Urinary alanine was determined as 1097 ± 106.5 mM/M creatinine, the Urinary arginine was 265 ± 27.5 mM/M creatinine, the Urinary cystine is given as 481.6 ± 32.8 mM/M creatinine and the Urinary glycine was 1066 ± 162 mM/M creatinine. In series [6] (setting [11]), the Urinary lysine is 123,851 ± 8548 mM/M creatinine. Besides, in series [6] (Ctns KO mice, daily urine collections), the “urinary lysine concentration reached” value was ~ 150 mM. Besides, in series [6] (Ctns KO mice, vs control diet), the increase of argininuria came out at 12 fold, the increase of cystinuria turned out to be 7 fold and the increase of lysinuria was 2200 fold. Moreover, in series [7] (Ctns KO female mice), the “mean kidney cystine at 8 months-of-age” value is 44.6 ± 10.8 nmol hemi-cystine/mg kidney protein. Moreover, the “kidney cystine accumulation during the treatment period” value in [7] (Ctns KO mice) is “probably fully arrested”. For the same molecule, the “liver cystine level at 8 months-of-age” value in series [8] is given as “did not affect”. Further, the “tolerance of prolonged diet” value in [3] is listed as “strong polyuria but no weight loss”. Also, the “increase of microalbuminuria vs control diet” value in series [9] (Ctns KO female mice, diet from 6-to-8 months of age) is listed as “> twofold”. Also, in [9] (setting [12]), the “Urine CC16/creatinine” value is given as 18,257 ± 1488 μg/g and the Urine microalbumin/creatinine is listed as 0.5 ± 0.2 (n = 8) mg/g.
The molecule `N=C(N)NCCC[C@H](N)C(=O)O` [arginine] showed an IC50 in series [1] (setting [13]) of approximately 60 mM.
Consider `NCC(=O)O` [glycine], for which the “SPR signal of amino-acid alone” value in series [1] is given as “no signal was detected”. In addition, the “effect on megalin:TC:B12 interaction” value in series [1] (up to 100 mM) is reported as “No detectable effect”. Besides, the “effect on megalin binding of lysozyme” value in series [2] was “No detectable effect”.
In series [1] (setting [13]), `NCCCC[C@H](N)C(=O)O` [lysine] displayed an IC50 of approximately 25 mM.
